Laboratory results published in patent EP2719696A1, “NOVEL KINASE INHIBITORS” (Asinex Limited, priority 2011, dated 2012).

Columns and labels:
VEGFR-2 = VEGFR-2 (Homo sapiens, UniProt P35968); assay: Kinase inhibition assay (ELISA); format: biochemical; details: 1.5 µM ATP
Description: (§1) To determine the interaction of our compounds with tyrosine kinases: PDGFR-α, cKIT, PDGFR-β, VEGFR-2 we used enzyme-linked immunosorbent assay (ELISA).
(§2) Determination plates preparation: The plates are processed by neutravidine for 2 h at 30°C. After washing thrice with TBS/0.1% Tween-20 and blocking with 1% BSA/TBS for 1 h at room temperature (RT) 96-well microtiter plates were washed thrice with TBS/0.1% Tween-20 again.
(§3) Reaction: After addition test compounds (in DMSO, DMSO final concentration - 5%) to reaction buffer (20 mM HEPES, pH 7.5, 15 mM MgCl2, 3 mM MnCl2, 2 mM DTT, 0.2 mM Na3VO4, 0.005% Triton X-100; PDGFR-α,: 0.05 µg/ml, 0.5 µg/ml Poly(G,T)-biotin; PDGFR-β: 0.05 µg/ml, 1 µg/ml Poly(G,T)-biotin; c-KIT: 0.03 µg/ml, 0.15 µg/ml Poly(G,T)-biotin; VEGFR-2: 0.07 µg/ml, 0.05 µg/ml Poly(G,T)-biotin) and preincubation of reaction for 10 min at RT and intensive agitation, ATP solution (PDGFR-α, - 1 µM, PDGFR-β - 0.5 µM, c-KIT - 60 µM, VEGFR-2: - 1.5 µM ATP in reaction buffer per well) was added to initiate reaction. Following incubation of mixture for 1 h at 30°C and intensive agitation the reaction was stopped by stop solution (20 mM HEPES, pH 7.5, 50 mM EDTA).
(§4) Kinase activity determination: The reaction mixture was transferred to determination plate. After mix incubation for 1 h at RT and intensive agitation the plates were washed thrice with TBS/0.1% Tween-20. Following mouse monoclonal 0.05 µg/ml Anti-p-Tyr (PY20) HRP antibodies (Santa Cruz Biotechnology) in PBS/BSA were added for 1 h at RT and intensive agitation. After washing, antibody binding was detected by tetramethylbenzidine (TMB) color development (Sigma). Measurement of A450 nm was carried out after addition of H2SO4

cKIT = cKIT (Homo sapiens, UniProt P10721); assay: Kinase inhibition assay (ELISA); format: biochemical; details: 60 µM ATP
Description: as §1, §2, §3, §4

PDGFR-α = PDGFR-α (Homo sapiens, UniProt P16234); assay: Kinase inhibition assay (ELISA); format: biochemical; details: 1 µM ATP
Description: as §1, §2, §3, §4

A2780 = assay: MTT proliferation / cytotoxicity assay; format: cell-based, human; details: Homo sapiens, A2780, 72 h
Description: (§5) Cell culture. The human cancer cell lines A172, A375, A2780 and U251 were purchased from the American Type Culture Collection. All cells were routinely maintained in DMEM containing 10% fetal bovine serum (Omega Scientific), at 37°C in 5% C02.
(§6) Proliferation assay Inhibition of cell A172, A375, A2780 and U251 cell proliferation was assessed by a MTT assay (MTT = Thiazolyl Blue Tetrazolium Bromide) . Cells were inoculated into 96-well microtiter plates containing 0.5% fetal calf serum and incubated at 37°C, 5% CO2, 95% air, and 100% relative humidity for 24 h prior to addition of testing compounds. Following compounds addition, the plates were incubated for an additional 72 h before processing to measure the cell population. Each compound was tested at eight different concentrations in triplicate, as was a control sample. Growth inhibition of 50% (IC50) is calculated by analysis of the data in Prizm3.4 software.
(§7) Table 8 lists IC50 values for inhibition of growth of several cancer cell lines, including the glioblastoma cell lines A172 and U251, measured in a MTT cytotoxicity assay. Table 8. Data of cytotoxicity assay (MTT) for several cancer cell lines, IC50 [µM]

A375 = assay: MTT proliferation / cytotoxicity assay; format: cell-based, human; details: Homo sapiens, A-375, 72 h
Description: as §5, §6, §7

U251 = assay: MTT proliferation / cytotoxicity assay; format: cell-based, human; details: Homo sapiens, U-251, 72 h, glioblastoma cell line
Description: as §5, §6, §7

A172 = assay: MTT proliferation / cytotoxicity assay; format: cell-based, human; details: Homo sapiens, A 172, 72 h, glioblastoma cell line
Description: as §5, §6, §7

Sequence of PDGFR-α (P16234 24-1089, species assumed): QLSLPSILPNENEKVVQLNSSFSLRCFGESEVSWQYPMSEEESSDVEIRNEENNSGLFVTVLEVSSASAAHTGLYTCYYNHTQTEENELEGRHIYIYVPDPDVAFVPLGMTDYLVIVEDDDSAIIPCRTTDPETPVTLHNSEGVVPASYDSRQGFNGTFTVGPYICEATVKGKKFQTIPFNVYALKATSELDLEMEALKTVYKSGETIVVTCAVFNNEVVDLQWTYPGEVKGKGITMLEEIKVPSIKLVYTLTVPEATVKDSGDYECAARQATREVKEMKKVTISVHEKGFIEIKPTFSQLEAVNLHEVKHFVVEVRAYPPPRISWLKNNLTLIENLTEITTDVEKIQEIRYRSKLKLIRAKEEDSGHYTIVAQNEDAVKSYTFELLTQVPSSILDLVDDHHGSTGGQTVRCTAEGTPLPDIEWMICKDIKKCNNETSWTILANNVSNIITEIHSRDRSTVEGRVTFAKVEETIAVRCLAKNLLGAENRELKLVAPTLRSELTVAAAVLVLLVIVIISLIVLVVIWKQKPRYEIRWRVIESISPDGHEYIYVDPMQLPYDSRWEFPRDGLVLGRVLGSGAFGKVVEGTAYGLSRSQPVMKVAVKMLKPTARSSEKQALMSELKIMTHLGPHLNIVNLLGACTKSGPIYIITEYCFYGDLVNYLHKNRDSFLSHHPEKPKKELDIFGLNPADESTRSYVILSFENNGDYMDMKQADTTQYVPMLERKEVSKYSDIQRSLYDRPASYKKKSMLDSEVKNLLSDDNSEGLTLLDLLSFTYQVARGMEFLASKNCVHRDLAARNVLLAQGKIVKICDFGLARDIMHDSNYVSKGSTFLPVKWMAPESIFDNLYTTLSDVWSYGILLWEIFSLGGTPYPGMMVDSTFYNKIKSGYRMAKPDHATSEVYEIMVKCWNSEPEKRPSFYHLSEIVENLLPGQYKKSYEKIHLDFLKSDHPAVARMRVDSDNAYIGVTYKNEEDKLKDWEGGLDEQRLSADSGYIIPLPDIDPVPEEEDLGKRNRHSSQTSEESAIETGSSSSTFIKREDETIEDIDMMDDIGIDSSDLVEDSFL
Sequence of cKIT (P10721 26-976): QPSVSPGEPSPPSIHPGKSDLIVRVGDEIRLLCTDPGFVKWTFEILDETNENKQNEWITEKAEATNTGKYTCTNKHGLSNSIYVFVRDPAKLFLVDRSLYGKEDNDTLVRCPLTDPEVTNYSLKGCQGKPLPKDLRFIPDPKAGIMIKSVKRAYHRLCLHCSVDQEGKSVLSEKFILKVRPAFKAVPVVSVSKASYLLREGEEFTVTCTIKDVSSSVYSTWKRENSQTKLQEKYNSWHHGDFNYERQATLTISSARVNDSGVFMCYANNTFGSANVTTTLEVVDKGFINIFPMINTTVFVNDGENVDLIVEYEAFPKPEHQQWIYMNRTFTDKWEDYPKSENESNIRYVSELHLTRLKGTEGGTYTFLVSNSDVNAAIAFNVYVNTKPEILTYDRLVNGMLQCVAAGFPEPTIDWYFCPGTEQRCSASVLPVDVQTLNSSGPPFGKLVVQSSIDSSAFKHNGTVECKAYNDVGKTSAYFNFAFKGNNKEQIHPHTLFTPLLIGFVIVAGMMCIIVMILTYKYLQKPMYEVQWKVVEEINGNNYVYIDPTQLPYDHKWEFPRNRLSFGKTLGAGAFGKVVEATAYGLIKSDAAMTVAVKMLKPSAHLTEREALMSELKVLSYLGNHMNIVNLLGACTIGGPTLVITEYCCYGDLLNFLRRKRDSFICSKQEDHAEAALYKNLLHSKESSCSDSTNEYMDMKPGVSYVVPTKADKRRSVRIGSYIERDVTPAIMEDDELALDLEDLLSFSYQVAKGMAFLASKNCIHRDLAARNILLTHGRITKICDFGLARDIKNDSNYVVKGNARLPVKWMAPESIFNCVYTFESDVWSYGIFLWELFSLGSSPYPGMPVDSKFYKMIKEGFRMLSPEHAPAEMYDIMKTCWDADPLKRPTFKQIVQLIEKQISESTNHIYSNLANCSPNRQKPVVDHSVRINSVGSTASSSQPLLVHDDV
Sequence of VEGFR-2 (P35968 20-1356, species assumed): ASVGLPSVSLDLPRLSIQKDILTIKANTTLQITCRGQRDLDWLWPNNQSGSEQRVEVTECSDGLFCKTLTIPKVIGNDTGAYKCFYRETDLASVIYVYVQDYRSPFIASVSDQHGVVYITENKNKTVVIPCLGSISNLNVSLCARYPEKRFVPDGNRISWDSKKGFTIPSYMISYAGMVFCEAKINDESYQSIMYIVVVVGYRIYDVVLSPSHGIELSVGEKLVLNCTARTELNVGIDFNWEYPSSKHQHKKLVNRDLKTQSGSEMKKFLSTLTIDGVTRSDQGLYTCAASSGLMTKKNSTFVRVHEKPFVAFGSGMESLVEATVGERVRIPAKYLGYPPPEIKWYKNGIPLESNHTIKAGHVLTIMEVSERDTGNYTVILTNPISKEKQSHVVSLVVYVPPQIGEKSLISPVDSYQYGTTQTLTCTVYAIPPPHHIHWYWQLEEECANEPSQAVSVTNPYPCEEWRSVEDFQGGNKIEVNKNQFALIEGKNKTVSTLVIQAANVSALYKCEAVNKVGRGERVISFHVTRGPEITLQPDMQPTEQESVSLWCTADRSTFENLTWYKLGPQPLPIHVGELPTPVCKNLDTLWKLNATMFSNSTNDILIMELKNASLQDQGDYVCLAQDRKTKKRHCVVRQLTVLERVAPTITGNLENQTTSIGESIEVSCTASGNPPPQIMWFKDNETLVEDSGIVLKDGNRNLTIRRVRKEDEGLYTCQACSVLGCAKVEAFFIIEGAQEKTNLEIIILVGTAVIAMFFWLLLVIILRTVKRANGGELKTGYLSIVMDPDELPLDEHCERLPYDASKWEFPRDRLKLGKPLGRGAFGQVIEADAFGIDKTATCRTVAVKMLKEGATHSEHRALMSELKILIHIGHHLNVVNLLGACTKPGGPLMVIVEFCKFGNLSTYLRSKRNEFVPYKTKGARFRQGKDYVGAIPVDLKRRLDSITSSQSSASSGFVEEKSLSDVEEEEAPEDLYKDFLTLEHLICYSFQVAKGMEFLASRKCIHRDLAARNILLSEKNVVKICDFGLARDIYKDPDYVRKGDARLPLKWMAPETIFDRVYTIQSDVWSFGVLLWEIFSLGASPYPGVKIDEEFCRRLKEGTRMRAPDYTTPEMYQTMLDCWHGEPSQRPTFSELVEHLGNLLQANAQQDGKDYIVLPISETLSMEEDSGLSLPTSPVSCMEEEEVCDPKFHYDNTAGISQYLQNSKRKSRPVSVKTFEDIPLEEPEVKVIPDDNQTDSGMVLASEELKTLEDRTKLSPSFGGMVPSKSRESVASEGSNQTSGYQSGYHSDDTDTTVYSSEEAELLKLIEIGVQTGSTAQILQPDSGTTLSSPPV

SMILES | IC50 (VEGFR-2) | IC50 (cKIT) | IC50 (PDGFR-α) | IC50 (A2780) | IC50 (A375) | IC50 (U251) | IC50 (A172)
Fc1ccc(-c2cnc(Nc3cc(CC4CCNCC4)ccn3)s2)cc1 [Example 001, [5-(4-Fluoro-phenyl)-thiazol-2-yl]-(4-piperidin-4-ylmethyl-pyridin-2-yl)-amine] | > 10 nM | < 10 nM | < 10 nM | > 1 µM | > 1 µM | > 1 µM | > 10 µM
CC(=O)N1CCC(Cc2ccnc(Nc3ncc(-c4ccc(F)cc4)s3)c2)CC1 [Example 002, 1-(4-{2-[5-(4-Fluoro-phenyl)-thiazol-2-ylamino]-pyridin-4-ylmethyl}-piperidin-1-yl)-ethanone] | > 10 nM | < 10 nM | < 10 nM | > 1 µM | > 1 µM | > 10 µM | > 1 µM
CN1CCC(Cc2ccnc(Nc3ncc(-c4ccc(F)cc4)s3)c2)CC1 [Example 004, [5-(4-Fluoro-phenyl)-thiazol-2-yl]-[4-(1-methyl-piperidin-4-ylmethyl)-pyridin-2-yl]-amine] |  |  |  | > 1 µM | > 1 µM | > 10 µM | > 1 µM
CN1CCOCC(Cc2ccnc(Nc3ncc(-c4ccc(F)cc4)s3)c2)C1 (stereo not drawn) [Example 010, [5-(4-Fluoro-phenyl)-thiazol-2-yl]-[4-(4-methyl-[1,4]oxazepan-6-ylmethyl)-pyridin-2-yl]-amine] |  |  |  | > 1 µM | > 1 µM | > 10 µM | > 1 µM
c1ccc(-c2cnc(Nc3cc(CC4CCNC4)ccn3)s2)cc1 (stereo not drawn) [Example 014, (5-Phenyl-thiazol-2-yl)-(4-pyrrolidin-3-ylmethyl-pyridin-2-yl)-amine] | > 10 nM | > 10 nM | < 10 nM |  |  |  | 
CNC1CCC(Cc2ccnc(Nc3ncc(-c4ccc(F)cc4)s3)c2)CC1 (stereo not drawn) [Example 016, [5-(4-Fluoro-phenyl)-thiazol-2-yl]-[4-(4-methylamino-cyclohexylmethyl)-pyridin-2-yl]-amine] | > 10 nM | < 10 nM | < 10 nM | > 1 µM |  |  | > 1 µM
Fc1ccc(-c2cnc(Nc3cc(CC4CCC5CNCC54)ccn3)s2)cc1 (stereo not drawn) [Example 018, [5-(4-Fluoro-phenyl)-thiazol-2-yl]-[4-(octahydro-cyclopenta[c]pyrrol-4-ylmethyl)-pyridin-2-yl]-amine] | > 10 nM | < 10 nM | < 10 nM | > 1 µM |  |  | > 1 µM
Fc1ccc(-c2cnc(Nc3cccc(CC4CCC5CNCC54)n3)s2)cc1 (stereo not drawn) [Example 020, [5-(4-Fluoro-phenyl)-thiazol-2-yl]-[6-(octahydro-cyclopenta[c]pyrrol-4-ylmethyl)-pyridin-2-yl]-amine] | > 100 nM | < 10 nM | < 10 nM | < 1 µM |  |  | ≤ 1 µM
Fc1ccc(-c2cnc(Nc3cccc(CC4COC5(CCNCC5)C4)n3)s2)cc1 (stereo not drawn) [Example 024, [5-(4-Fluoro-phenyl)-thiazol-2-yl]-[6-(1-oxa-8-aza-spiro[4.5]dec-3-ylmethyl)-pyridin-2-yl]-amine] | > 10 nM | > 10 nM | < 10 nM | ≤ 1 µM |  |  | ≤ 1 µM
c1ccc(-c2cnc(Nc3cc(CC4CCCNCC4)ccn3)s2)cc1 (stereo not drawn) [Example 026, (4-Azepan-4-ylmethyl-pyridin-2-yl)-(5-phenyl-thiazol-2-yl)-amine] |  |  |  | ≤ 1 µM | > 1 µM | > 10 µM | > 1 µM
c1ccc(-c2cnc(Nc3cc(C4CCCN4)ccn3)s2)cc1 (stereo not drawn) [Example 027, (5-Phenyl-thiazol-2-yl)-(4-pyrrolidin-2-yl-pyridin-2-yl)-amine] | > 10 nM | > 10 nM | < 10 nM |  |  |  | 
Cc1cc(Nc2ncc(-c3ccccc3)s2)nc(C2CCN(CCO)CC2)n1 [Example 029, 2-{4-[4-Methyl-6-(5-phenyl-thiazol-2-ylamino)-pyrimidin-2-yl]-piperidin-1-yl}-ethanol] | > 100 nM | < 10 nM | > 10 nM | ≤ 1 µM |  | > 1 µM | ≤ 1 µM
OCCN1CCC(c2cncc(Nc3ncc(-c4ccccc4)s3)n2)CC1 [Example 030, 2-{4-[6-(5-Phenyl-thiazol-2-ylamino)-pyrazin-2-yl]-piperidin-1-yl}-ethanol] | > 100 nM | > 100 nM | > 10 nM |  |  |  | 
Cc1nc(Nc2ncc(-c3ccccc3)s2)cc(C2CCN(C(=O)C(C)(C)N)CC2)n1 [Example 031, 2-Amino-2-methyl-1-{4-[2-methyl-6-(5-phenyl-thiazol-2-ylamino)-pyrimidin-4-yl]-piperidin-1-yl}-propan-1-one] | > 10 nM | > 10 nM | < 10 nM | > 1 µM |  | > 10 µM | > 1 µM
CCCc1cnc(Nc2cccc(C3CCN(C(=O)C(C)(C)N)CC3)n2)s1 [Example 041, 2-Amino-2-methyl-1-[6-(5-propyl-thiazol-2-ylamino)-3',4',5',6'-tetrahydro-2'H-[2,4']bipyridinyl-1'-yl]-propan-1-one] |  | > 100 nM |  | ≤ 1 µM | > 1 µM |  | 
OCCN1CCC(CO)(c2cccc(Nc3ncc(-c4ccccc4)s3)n2)CC1 [Example 042, 2-[4'-Hydroxymethyl-6-(5-phenyl-thiazol-2-ylamino)-3',4',5',6'-tetrahydro-2'H-[2,4']bipyridinyl-1'-yl]-ethanol] | > 10000 nM | > 100 nM | > 100 nM |  |  |  | 
CN(C)CC1(c2cccc(Nc3ncc(-c4ccccc4)s3)n2)CCN(CCO)CC1 [Example 043, 2-[4'-Dimethylaminomethyl-6-(5-phenyl-thiazol-2-ylamino)-3',4',5',6'-tetrahydro-2'H-[2,4']bipyridinyl-1'-yl]-ethanol] | > 10000 nM | > 10000 nM | > 1000 nM |  |  |  | 
CC(C)(C)OC(=O)N1CCC(c2cccc(Nc3ncc(C#CC4CC4)s3)n2)CC1 [Example 045, 6-(5-Cyclopro-pylethynyl-thiazol-2-ylamino)-3',4',5',6'-tetrahydro-2'H-[2,4']bipyridinyl-1'-carboxylic acid tert-butyl ester] | > 10 nM | > 10000 nM | > 10000 nM |  |  |  | 
OCCN1CCC(c2cccc(Nc3ncc(-c4ccnc(Cl)c4)s3)n2)CC1 [Example 046, 2-{6-[5-(2-Chloro-pyridin-4-yl)-thiazol-2-ylamino]-3',4',5',6'-tetrahydro-2'H-[2,4']bipyridinyl-1'-yl}-ethanol] | > 100 nM | > 10 nM | < 10 nM |  |  |  | 
CC(C)(C)Cc1cnc(Nc2cccc(C3CCN(C(=O)C(C)(C)N)CC3)n2)s1 [Example 047, 2-Amino-1-{6-[5-(2,2-dimethylpropyl)-thiazol-2-ylamino]-3',4',5',6'-tetrahydro-2'H-[2,4']bipyridinyl-1'-yl}-2-methyl-propan-1-one] | > 100 nM | > 1000 nM | > 100 nM | ≤ 1 µM | > 1 µM |  | 
OCCN1CCC(c2ccnc(Nc3ncc(/C=C/c4ccccc4)s3)c2)CC1 [Example 048, 2-{2'-[5-((E)-Styryl)-thiazol-2-ylamino]-3,4,5,6-tetrahydro-2H-[4,4']bipyridinyl-1-yl}-ethanol] | > 100 nM | > 1000 nM | > 10 nM |  |  |  | 
